Test results: patent publication US9278994B2, “Short antimicrobial lipopeptides” (Helix BioMedix Inc., priority 2012, dated 2016)
Values after ≈ are worked out from the molar mass of the structure shown. Where a SMILES comes first, the peptide text is derived from it. [ ]: non-standard residue; d: D form. The star is where a group is joined. Palmitoyl = CCCCCCCCCCCCCCCC(=O)*

Tests used:
C. albicans 105 = system: C. albicans 105
Experimental: (§1) We conducted the minimal inhibitory concentration (MIC) determination using CLSI (Clinical and Laboratory standard Institute) recommended standard protocol for antimicrobials (Methods for Dilution Antimicrobial Susceptibility Tests for Bacteria That Grow Aerobically; Approved Standard—Ninth Edition).
(§2) 2. Bacterial strains and culture conditions. E. coli UB1005, S. aureus SAP0017 (MRSA) and C. albicans 105 were grown in Mueller Hinton (MH) (Difco, BD Biosciences, MD) agar plates and broth (2 g of beef extract, 17.5 g of acid hydrolysis of casein and 1.5 g of starch per liter) at 37° C. unless otherwise indicated. Bacteria from frozen stock were subcultured onto freshly made MH agar plates prior to susceptibility testing. For P. acnes, the bacterium was grown in BBL™ Brain-Heart infusion (Becton, Dickinson & Company, Sparks Md.) broth or agar plates at 37° C. in anaerobic condition generated using a anaerobic jar and AnaeroGen™ (Oxoid, Basingstoke, Hampshire, England).
(§3) 3. […] The minimal inhibitory concentration (MIC) of each peptide was determined using modified CLSI microtiter broth dilution assay (Methods for Dilution Antimicrobial Susceptibility Tests for Bacteria That Grow Aerobically; Approved Standard—Ninth Edition). An inoculum of 10^5-10^6 colony forming units (CFU)/ml was used or 10^4 CFU/ml for yeast. The MIC value was taken as the lowest peptide concentration at which more than 90% of microbial growth was inhibited after 15 to 20 h of incubation at 37° C. For P. acnes, the incubation was kept under anaerobic condition at 37° C. for 2 weeks before MIC was determined Kill kinetics was performed using a given concentration (about 2-5-fold MIC) of peptide mixed with indicator microorganism. After appropriate dilution the cells were plated on agar plates after defined time intervals and incubated at 37° C. overnight. In the case of P. acnes an extended incubation period was required. The CFU was counted and plotted as survival of bacteria after peptide treatment over time, which indicates the effectiveness of a peptide to kill a microbe.

S. aureus SAP0017 (MRSA) [1] = system: S. aureus SAP0017 (MRSA)
Experimental: as §1, §2, §3

E. coli UB1005 = system: E. coli UB1005
Experimental: as §1, §2, §3

P. acnes = type: cell-based, Propionibacterium acnes
Experimental: as §2, §3

S. aureus SAP0017 (MRSA) [2] = type: cell-based, Staphylococcus aureus; conditions: for logs of S. aureus eradicated in a kill assay: SAP0017
Experimental: as §3

[3] = system: EpiDerm (EPI-200) skin tissue; assay: Skin tissue toxicity, EpiDerm skin model with MTT assay; type: cell-based; conditions: tissue viability (MTT), treated 20 hr
Experimental: 4. Skin tissue toxicity determination. Skin toxicity and compatibility was determined using EpiDerm (EPI-200) skin tissue and MTT Kit (MTT-100) (MatTek, Ashland, Mass.) according to the manufacture's instruction. 1% Triton X-100 and PBS were used as positive (toxic) and negative (non-toxic) control, respectively.
Potential for dermal irritancy of the lipodipeptides was tested using EpiDerm™ Skin Model (MatTek, Ashland, Mass.) in combination with a modified MTT assay. […] EpiDerm™ consists of organized basal, spinous, granular, and cornified layers analogous to those found in vivo. The tissues were treated with each compound at desired concentration for 20 hr.

P. acnes ATCC11827 = assay: Kill kinetics in PBS; type: cell-based, Propionibacterium acnes; conditions: detection limit 10 CFU/ml
Experimental: as §3

[4] = system: histamine induced IL-6 expression; assay: Anti-inflammatory activity in keratinocytes (data not shown); type: cell-based; conditions: human skin keratinocytes
Text: We modified both peptides via N-terminal acetylation with lipids of various lengths to the alpha amino group of KPV and KdPT.

[5] = system: C. albicans strain SC5314; conditions: Rauch et al. 2009; cited from earlier work
[6] = system: S. aureus and C. albicans; conditions: Cutuli et al. 2000, no MIC determined; cited from earlier work

MIC C. albicans (C. albicans 105) [µg/mL] | MIC S. aureus (S. aureus SAP0017 (MRSA) [1]) [µg/mL] | MIC E. coli (E. coli UB1005) [µg/mL] | MIC P. acnes (P. acnes) [µg/mL] | Molecule | logs of S. aureus eradicated in a kill assay (S. aureus SAP0017 (MRSA) [2]) | Toxicity EpiDerm [3] [µg/mL] | other results
>2000 | >2000 | >2000 | >2000 | NCCCC[C@H](N)C(=O)N1CCC[C@@H]1C(N)=O [HB2231, K-dP-NH2] (H-Lys-[dP]-NH2; N-terminus assumed) | – | – | anti-inflammatory activity against histamine induced IL-6 expression [4]: moderate anti-inflammatory activity
>2000 | >2000 | >2000 | >2000 | NCCCC[C@H](N)C(=O)N1CCC[C@H]1C(N)=O [HB2230, KP-NH2] (H-Lys-Pro-NH2; N-terminus assumed) | – | – | anti-inflammatory activity against histamine induced IL-6 expression [4]: moderate anti-inflammatory activity
32 (≈ 0.0539 mM) | 16 (≈ 0.0269 mM) | >2000 | 4 to 8 | CCCCCCCCCCCCCCCC(=O)N[C@@H](CCCCN)C(=O)N1CCC[C@H]1C(=O)N[C@@H](CC(C)C)C(N)=O [HB2209, Pal-KPL-NH2] (Palmitoyl-Lys-Pro-Leu-NH2) | 5-6 logs | >2000 | –
16 (≈ 0.029 mM) | 16 (≈ 0.029 mM) | 128 (≈ 0.232 mM) | 1 (≈ 0.00181 mM) | CCCCCCCCCCCCCCCC(=O)N[C@@H](CCCCN)C(=O)N1CCC[C@H]1C(=O)N[C@@H](C)C(N)=O [HB2208, Pal-KPA-NH2] (Palmitoyl-Lys-Pro-Ala-NH2) | 5-6 logs | >2000 | –

More lines, now with the values behind:

Molecule | MIC C. albicans (C. albicans 105) [µg/mL] | MIC S. aureus (S. aureus SAP0017 (MRSA) [1]) [µg/mL] | MIC E. coli (E. coli UB1005) [µg/mL] | MIC P. acnes (P. acnes) [µg/mL] | logs of S. aureus eradicated in a kill assay (S. aureus SAP0017 (MRSA) [2]) | Toxicity EpiDerm [3] [µg/mL] | other results
CCCCCCCCCCCCCCCC(=O)N[C@@H](CCCCN)C(=O)N1CCC[C@H]1C(=O)N[C@H](C(N)=O)C(C)C [HB2180, Pal-KPV-NH2] (Palmitoyl-Lys-Pro-Val-NH2) | 16 (≈ 0.0276 mM) | 8 (≈ 0.0138 mM) | 128 (≈ 0.221 mM) | 1 to 2 | 5-6 logs | >2000 | –
CCCCCCCCCCCCCCCC(=O)N[C@@H](CCCCN)C(=O)N1CCC[C@@H]1C(=O)N[C@H](C(N)=O)[C@@H](C)O [HB2178, Pal-K-dPT-NH2] (Palmitoyl-Lys-[dP]-Thr-NH2) | 16 (≈ 0.0275 mM) | – | – | 2 (≈ 0.00344 mM) | 5-6 logs | >2000 | survival of microbes (CFU/ml), 0 hr (P. acnes ATCC11827; 0 hr): 750000 CFU/ml; survival of microbes (CFU/ml), 20 min (P. acnes ATCC11827; 20 min): 20 CFU/ml; survival of microbes (CFU/ml), 1 hr (P. acnes ATCC11827; 1 hr): <10 CFU/ml; survival of microbes (CFU/ml), 2 hr (P. acnes ATCC11827; 2 hr): <10 CFU/ml; survival of microbes (CFU/ml), 3 hr (P. acnes ATCC11827; 3 hr): <10 CFU/ml; survival of microbes (CFU/ml), 0 hr (S. aureus SAP0017 (MRSA) [2]; S. aureus in PBS, 0 hr, detection limit 10 CFU/ml): 23050000 CFU/ml; survival of microbes (CFU/ml), 20 min (S. aureus SAP0017 (MRSA) [2]; S. aureus in PBS, 20 min, detection limit 10 CFU/ml): <10 CFU/ml; survival of microbes (CFU/ml), 1 hr (S. aureus SAP0017 (MRSA) [2]; S. aureus in PBS, 1 hr, detection limit 10 CFU/ml): <10 CFU/ml; survival of microbes (CFU/ml), 2 hr (S. aureus SAP0017 (MRSA) [2]; S. aureus in PBS, 2 hr, detection limit 10 CFU/ml): <10 CFU/ml; survival of microbes (CFU/ml), 3 hr (S. aureus SAP0017 (MRSA) [2]; S. aureus in PBS, 3 hr, detection limit 10 CFU/ml): <10 CFU/ml
C[C@@H](O)[C@H](NC(=O)[C@H]1CCCN1C(=O)[C@@H](N)CCCCN)C(N)=O [HB2089, K-dPT-NH2, reference compound] (H-Lys-[dP]-Thr-NH2) | >2000 | >2000 | >2000 | >2000 | – | >2000 | –
CC(C)[C@H](NC(=O)[C@@H]1CCCN1C(=O)[C@@H](N)CCCCN)C(N)=O [HB2068, KPV-NH2, reference compound] (H-Lys-Pro-Val-NH2) | >2000 | >2000 | >2000 | >2000 | – | >2000 | –
CCCCCCCCCCCCCCCC(=O)N[C@@H](CCCCN)C(=O)N1CCC[C@@H]1C(N)=O [HB2203, Pal-K-dP-NH2] (Palmitoyl-Lys-[dP]-NH2) | 16 (≈ 0.0333 mM) | 8 (≈ 0.0166 mM) | 128 (≈ 0.266 mM) | 1 to 2 | – | >2000 | –
C[C@@H](O)[C@H](NC(=O)[C@H]1CCCN1C(=O)[C@@H](N)CCCCN)C(=O)O [HB2090, K-dPT-OH, reference compound] (H-Lys-[dP]-Thr-OH) | >2000 | >2000 | >2000 | >2000 | – | >2000 | –
CC(C)[C@H](NC(=O)[C@@H]1CCCN1C(=O)[C@@H](N)CCCCN)C(=O)O [HB2067, KPV-OH, reference compound] (H-Lys-Pro-Val-OH) | >2000 | >2000 | >2000 | >2000 | – | >2000 | –
CCCCCCCCCCCCCCCC(=O)N[C@@H](CCCCN)C(=O)N1CCC[C@H]1C(N)=O [HB2202, Pal-KP-NH2] (Palmitoyl-Lys-Pro-NH2) | 16 (≈ 0.0333 mM) | 16 (≈ 0.0333 mM) | 64 (≈ 0.133 mM) | 1 (≈ 0.00208 mM) | – | >2000 | –
lysine-proline-valine [KPV] | – | – | – | – | – | – | concentration up to which yeast growth was not inhibited [5]: > 100 µM; antimicrobial activity in phosphate buffer [6]: antimicrobial activity
